Laboratory results taken from US7943628B2, “Pyrimidine derivatives” (Pfizer Limited, priority 2005, dated 2011).

Target: T1, histamine H4 receptor (Homo sapiens, UniProt Q9H3N8)
T1 construct: expressed in transfected cells; host or cells: CHO cells
Assay: H4 binding, method 1 ([3H]-histamine filtration binding on CHO cell membranes)
Details: 1.5 h
How it was run: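 Membranes from CHO cells expressing human H4 receptor (20-35 μg/well) incubated 90 min at room temperature with 3 nM [3H]-histamine in 50 mM Tris-HCl pH 7.4, ± competitor. Bound label separated by filtration on PEI-soaked GF/B filters and counted by scintillation; non-specific binding with 10 μM JNJ7777120.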

inhibition at 20 µM | Compound
15% | CNc1cc(N2CCCC(NC)C2)nc(N)n1 (centres unmarked) [Example 321, N^4-Methyl-6-[3-(methylamino)piperidin-1-yl]pyrimidine-2,4-diamine]

Same assay, conditions: H4 binding, method 1; Ki calculated from IC50 (Cheng-Prussoff)

Ki | Compound
870 nM | CN[C@@H]1CCN(c2cc(NCc3c(F)cccc3F)nc(N)n2)C1 [Example 271, N^4-(2,6-Difluorobenzyl)-6-[(3R)-3-(methylamino)pyrrolidin-1-yl]pyrimidine-2,4-diamine]
211 nM | C[C@@H]1CN(c2cc(NCc3ccccc3F)nc(N)n2)CCN1 [Example 237, N^4-(2-Fluorobenzyl)-6-[(3R)-3-methylpiperazin-1-yl]pyrimidine-2,4-diamine]
617 nM | CNC1(C)CN(c2cc(NC(C)C)ncn2)C1 [Example 261, N-Isopropyl-6-[3-methyl-3-(methylamino)azetidin-1-yl]pyrimidin-4-amine]
16 nM | CN[C@H]1CCN(c2cc(NCC(C)(C)C)nc(N)n2)C1 [Example 177, N^4-(2,2-Dimethylpropyl)-6-[(3S)-3-(methylamino)pyrrolidin-1-yl]pyrimidine-2,4-diamine]
343 nM | CN[C@@H]1CCN(c2cc(NCc3cccc(F)c3)nc(N)n2)C1 [Example 249, N^4-(3-Fluorobenzyl)-6-[(3R)-3-(methylamino)pyrrolidin-1-yl]pyrimidine-2,4-diamine]
297 nM | CC(C)(C)CCNc1cc(N2CC(N3CCCC3)C2)ncn1 [Example 244, N-(3,3-Dimethylbutyl)-6-(3-pyrrolidin-1-ylazetidin-1-yl)pyrimidin-4-amine]

Compound | Ki
C[C@H]1CN(c2cc(NC3CC3)ncn2)CCN1 [Example 252, N-Cyclopropyl-6-[(3S)-3-methylpiperazin-1-yl]pyrimidin-4-amine] | 370 nM

Same assay, conditions: top dose 10 μM

Method 1, activity at top dose (10 μM) | Compound
No activity at top | c1nc(NC2CC2)cc(N2CCCNCC2)n1 [Example 314, N-Cyclopropyl-6-(1,4-diazepan-1-yl)pyrimidin-4-amine]
No activity at top | CNC1CN(c2cc(NCc3c(F)cccc3F)nc(N)n2)C1 [Example 317, N^4-(2,6-Difluorobenzyl)-6-[3-(methylamino)azetidin-1-yl]pyrimidine-2,4-diamine]

Compound | Method 1, activity at top dose (10 μM)
CC(C)(C)CNc1cc(N2C[C@H]3CCCN[C@H]3C2)nc(N)n1 [Example 318, N^4-(2,2-Dimethylpropyl)-6-[(4aR,7aR)-octahydro-6H-pyrrolo[3,4-b]pyridin-6-yl]pyrimidine-2,4diamine] | No activity at top

Target: T1, histamine H4 receptor
Assay: H4 binding, method 2 ([3H]-histamine binding with Ysi WGA beads on CHO cell membranes)
Details: H4 binding, method 2; Ki calculated from IC50 (Cheng-Prussoff); read-out: Method 2 (Ki (nM))
Method: Cell pellets from CHO cells expressing the histamine H4 receptor were homogenised in ice-cold 50 mM Tris-HCl/0.5 mM CaCl2 buffer containing a protease inhibitor cocktail (Roche®, United Kingdom) using a ground glass homogeniser. Homogenates were centrifuged at 48000 g for 30 min at 4° C. The membrane pellet was resuspended in fresh buffer and the centrifugation step was repeated as described above. The membrane pellet was resuspended in 50 mM Tris-HCl in the same volume as the original cell pellet. Aliquots of membrane preparations were stored at −80° C. and were used for [^3H]-Histamine binding experiments.
Cell membranes (15 μg/well) were pre-incubated for 120 min shaking at 4° C. with Ysi WGA beads (250 μg/well) in 50 mM Tris-HCl (pH 7.4) followed by centrifugation at 1500 rpm for 5 minutes and resuspension in 50 mM Tris-HCl (pH 7.4). The membrane/bead mixture (15 μg membrane/250 μg beads well) was incubated for 90 minutes shaking at room temperature with 6.5 nM [2,5-^3H] Histamine dihydrochloride (30-60 Ci/mmol) in 50 mM Tris-HCl (pH 7.4), with or without competing H4 ligands. Non-specific binding was defined with 10 μM JNJ7777120. Bound radiolabel was determined using scintillation counting techniques after 90 minutes.

Compound | Ki
CNC1CN(c2cc(NCC3CC3)ncn2)C1 [Example 44, Cyclopropylmethyl-[6-(3-methylamino-azetidin-1-yl)-pyrimidin-4-yl]-amine] | 20.5 nM
CNC1CN(c2cc(NCc3cccc(OC)c3)nc(N)n2)C1 [Example 66, N^4-(3-Methoxy-benzyl)-6-(3-methylamino-azetidin-1-yl)-pyrimidine-2,4-diamine] | 61.1 nM
CC(C)CNc1cc(N2C[C@H]3CCCN[C@H]3C2)ncn1 (relative stereo) [Example 125, N-Isobutyl-6-[(4aR*,7aR*)-octahydro-6H-pyrrolo[3,4-b]pyridin-6-yl]pyrimidin-4-amine] | 223 nM
CNC1CN(c2cc(NCCC(C)C)ncn2)C1 [Example 55, 6-[3-(Methylamino)azetidin-1-yl]-N-(3-methylbutyl)pyrimidin-4-amine] | 28.9 nM
CCNc1cc(N2CC[C@@H](NC)C2)nc(N)n1 [Example 12, N^4-Ethyl-6-[(3R)-3-(methylamino)pyrrolidin-1-yl]pyrimidine-2,4-diamine] | 52.4 nM
CN(C)[C@@H]1CCN(c2cc(NCC3CC3)ncn2)C1 [Example 19, N-(Cyclopropylmethyl)-6-[(3R)-3-(dimethylamino)pyrrolidin-1-yl]pyrimidin-4-amine] | 132 nM
CCCNc1cc(N2C[C@H]3CN(C)C[C@H]3C2)nc(N)n1 [Example 34, 6-[(3aR*,6aS*)-5-Methylhexahydropyrrolo[3,4-c]pyrrol-2(1H)-yl]-N^4-propylpyrimidine-2,4-diamine] | 452 nM
CN1C[C@@H]2CN(c3cc(NCC4CC4)nc(N)n3)C[C@@H]2C1 [Example 38, N^4-(Cyclopropylmethyl)-6-[(3aR*,6aS*)-5-methylhexahydro-pyrrolo[3,4-c]pyrrol-2(1H)-yl]pyrimidine-2,4-diamine] | 128 nM
CNC1CN(c2cc(NCC(C)(C)C)ncn2)C1 [Example 57, N-(2,2-Dimethylpropyl)-6-[3-(methylamino)azetidin-1-yl]pyrimidin-4-amine] | 20.3 nM
CNc1cc(N2C[C@H]3CCCN[C@H]3C2)nc(N)n1 (racemic) [Example 25, N^4-Methyl-6-[(4aR*,7aR*)-octahydro-6H-pyrrolo[3,4-b]pyridin-6-yl]pyrimidine-2,4-diamine] | 154 nM
CN1C[C@@H]2CN(c3cc(NC4CCC4)nc(N)n3)C[C@@H]2C1 [Example 43, N^4-Cyclobutyl-6-[(3aR*,6aS*)-5-methylhexahydro-pyrrolo[3,4-c]pyrrol-2(1H)-yl]pyrimidine-2,4-diamine] | 236 nM
CN1C[C@@H]2CN(c3cc(NC4CC4)nc(N)n3)C[C@@H]2C1 [Example 42, N^4-Cyclopropyl-6-[(3aR*,6aS*)-5-methylhexahydro-pyrrolo[3,4-c]pyrrol-2(1H)-yl]pyrimidine-2,4-diamine] | 433 nM

Now from value to compound:

Ki | Compound
42.7 nM | CN[C@@H]1CCN(c2cc(NCCC(C)(C)C)ncn2)C1 [Example 109, N-(3,3-Dimethylbutyl)-6-[(3R)-3-(methylamino)pyrrolidin-1-yl]pyrimidin-4-amine]
3.77 nM | C[C@H]1CN(c2cc(NCC(C)(C)C)nc(N)n2)CCN1 [Example 96, N^4-(2,2-Dimethylpropyl)-6-[(3S)-3-methylpiperazin-1-yl]pyrimidine-2,4-diamine]
829 nM | COCCNc1cc(N2CCN(C)CC2)ncn1 [Example 110, N-(2-Methoxyethyl)-6-(4-methylpiperazin-1-yl)pyrimidin-4-amine]
9.68 nM | CNC1CN(c2cc(NCc3ccccc3C)nc(N)n2)C1 [Example 82, 6-[3-(Methylamino)azetidin-1-yl]-N^4-(2-methylbenzyl)pyrimidine-2,4-diamine]
1440 nM | CN1CCN(c2cc(NCCC(C)(C)C)nc(N(C)C)n2)CC1 [Example 330, N^4-(3,3-Dimethylbutyl)-N^2,N^2-dimethyl-6-(4-methylpiperazin-1-yl)pyrimidine-2,4-diamine]
9070 nM | CNc1nc(NCCC(C)(C)C)cc(N2CCN(C)CC2)n1 [Example 339, N^4-(3,3-Dimethylbutyl)-N^2-methyl-6-(4-methylpiperazin-1-yl)pyrimidine-2,4-diamine]
1480 nM | CN1CCN(c2cc(NC[C@H]3CCCO3)ncn2)CC1 [Example 113, 6-(4-Methylpiperazin-1-yl)-N-[(2R)-tetrahydrofuran-2-ylmethyl]pyrimidin-4-amine]
21.7 nM | CNC1CN(c2cc(NCc3ccccc3C(F)(F)F)nc(N)n2)C1 [Example 84, 6-[3-(Methylamino)azetidin-1-yl]-N^4-[2-(trifluoromethyl)benzyl]pyrimidine-2,4-diamine]
35.8 nM | CNC1CN(c2cc(NCc3ccc(C)cc3)nc(N)n2)C1 [Example 88, 6-[3-(Methylamino)azetidin-1-yl]-N^4-(4-methylbenzyl)pyrimidine-2,4-diamine]
11.2 nM | CNC1CN(c2cc(NCc3ccccc3)nc(N)n2)C1 [Example 79, N^4-Benzyl-6-[3-(methylamino)azetidin-1-yl]pyrimidine-2,4-diamine]

Same assay, conditions: Method 2 (Ki (nM)), H4 binding, method 2; Ki calculated from IC50 (Cheng-Prussoff)

Compound | Ki
Nc1nc(NCC2CC2)cc(N2C[C@H]3CCCN[C@H]3C2)n1 (racemic) [Example 28, N^4-(Cyclopropylmethyl)-6-[(4aR*,7aR*)-octahydro-6H-pyrrolo[3,4-b]pyridin-6-yl] pyrimidine-2,4-diamine] | 21.3 nM
CC(C)Nc1cc(N2C[C@H]3CCCN[C@H]3C2)nc(N)n1 (racemic) [Example 24, N^4Isopropyl-6-[(4aR*,7aR*)-octahydro6H-pyrrolor[3,4-b]pyridin-6-yl]pyrimidine-2,4-diamine] | 30.8 nM
Nc1nc(NC2CCC2)cc(N2C[C@H]3CCCN[C@H]3C2)n1 (racemic) [Example 32, N^4-Cyclobutyl-6-[(4aR*,7aR*)-octahydro-6H-pyrrolo[3,4-b]pyridin-6-yl] pyrimidine-2,4-diamine] | 20.9 nM
CC(C)CNc1cc(N2C[C@H]3CCCN[C@H]3C2)nc(N)n1 (racemic) [Example 27, N^4-Isobutyl-6-[(4aR*,7aR*)-octahydro-6H-pyrrolo[3,4-b]pyridin-6-yl]pyrimidine-2,4-diamine] | 22.4 nM
CC(C)CCNc1cc(N2C[C@H]3CCCN[C@H]3C2)nc(N)n1 (racemic) [Example 29, N^4-(3-Methylbutyl)-6-[(4aR*, 7aR*)-octahydro-6H-pyrrolo [3,4-b]pyridin-6-yl] pyrimidine-2,4-diamine] | 82.9 nM
